Laboratory results from a melting point compilation (Tetko et al.; mined from patent text by program, amines drawn as free bases though some values may be those of a salt).

Row | Compound | melting point [°C]
1 | O=c1cc2c(nn1-c1ccc(Cl)cc1)-c1cccnc1CC2 | 166 to 167
2 | c1ccc(CN2CCC(NCc3ccc(OCc4ccnc5ccccc45)cc3)CC2)cc1 | 72 to 75
3 | COc1ccc(/C(=C/C=C/C(=O)Oc2ccc([N+](=O)[O-])cc2)c2cccs2)cc1 | 113 to 115
4 | CCNC(=O)[C@H]1N(C(=O)[C@@H](OC(C)=O)[C@H](Cc2ccccc2)NC(=O)c2cc(C)cc(OC(C)=O)c2C)CC(F)(F)C1(C)C | 88 to 93
5 | COc1cc2c(cc1OC)C(=O)C(c1ccc3c(c1)OCO3)CC2 (stereo not drawn) | 168 to 170
6 | CN(CC(O)CO)C(=O)c1c(I)c(C#N)c(I)c(C(=O)NCC(O)CO)c1I (stereo not drawn) | 215
7 | CC(C)Nc1cccnc1N1CCN(C(=O)c2ccc(C(=O)Nc3nncs3)cn2)CC1 | 260 to 262
8 | N#Cc1ccc([C@H]2CC[C@H](CO)CC2)cc1 | 108
9 | O=C(CCCCCCCCCC=C(F)F)Nc1ccccc1Cl | 54 to 55
10 | O=C(Cl)OCC1c2ccccc2Oc2ccccc21 | 64 to 65
11 | Cc1c(C=O)c2c(c(C)c1NC(=O)CC(C)(C)C)CC(C)(C)O2 | 180 to 181
12 | COc1ccc(OC)n2nc(S(=O)(=O)Nc3c(F)cccc3F)nc12 | 319 to 320
13 | COc1ccc(N2CCN(c3ccc(N=C=S)cc3)CC2)cc1 | 181
14 | O=S1(=O)c2cccc3cccc(c23)N1CCCN1CCC(c2c[nH]c3ccccc23)CC1 | 162
15 | COc1ccccc1-c1nc(C)c(-c2cccnc2)n1O | 105 to 120
16 | CN(c1cc2c3c(c1)CCCC3CCC2)c1ncc(C(=O)O)cn1 | 255 to 256
17 | CC1(C)CCc2cc(C#N)ccc2O1 | 30 to 31
18 | COc1ccc2c(c1)C(C(=O)Nc1c(C(C)C)cccc1C(C)C)c1cccnc1CO2 (stereo not drawn) | 180 to 181
19 | CN1CCN(CCC(=O)N2c3ccccc3C(=O)Nc3cccnc32)CC1 | 232 to 233
20 | Cc1cccc2c1N(CC(=O)N1CC3CCC(CC3)C1)C(=O)C(NC(=O)Nc1cccc(O)c1)N=C2c1ccccc1F (stereo not drawn) | 193 to 204
21 | CCOc1cc2ncc(C#N)c(Nc3ccc4cn[nH]c4c3)c2cc1OCC | 143 to 145
22 | Clc1ccc(-c2cc(Cl)nc(Cl)n2)cc1 | 130 to 132
23 | CC(C)C1=C(Sc2ccccc2)C(c2ccc(F)cc2)=C(C(C)O)C(C(C)C)N1C (stereo not drawn) | 125 to 128
24 | O=C(O)COc1ccccc1N1CCN(c2ccncc2)CC1 | 294 to 296
25 | O=C(O)CC1CCc2c(n(Cc3ccccc3)c3ccccc23)S1 (stereo not drawn) | 164 to 167

Row | Compound | melting point [°C]
26 | COC(C)C(=O)Nc1ccc(C2=NNC(=O)CC2)cc1 (stereo not drawn) | 245 to 247
27 | CCCc1c(Cl)sc2[nH]c(=O)c(=O)[nH]c12 | 285 to 287
28 | N#Cc1cccc(-c2cc(-c3cc(C#N)ccc3[N+](=O)[O-])no2)c1 | 225 to 227
29 | CCc1ccc2c(c1)OC1(O)c3cccc(N)c3C(=O)C21O (stereo not drawn) | 200 to 203
30 | COc1ccc(-c2ccc3cnc(Nc4ccc(N5CCN(C)CC5)cc4OC)nn23)cn1 | 170 to 173
31 | CCCCCCCCCCCCCCCC(=O)NC(=O)OCc1nc(C(C)C)c(Sc2cc(Cl)cc(Cl)c2)n1CC | 95 to 97
32 | COCO[C@@H]1[C@H]2OC(C)(C)O[C@H]2[C@H](O[C@H]2C[C@H]3OC(C)(C)OC[C@]34C3C(CC[C@]4(O)C2)[C@@]2(O)CC[C@H](C#N)[C@@]2(C)C[C@H]3OCOC)O[C@H]1C (stereo partly drawn) | 97 to 99
33 | NS(=O)(=O)OCC1COc2cc(Cl)c(Cl)cc2O1 (stereo not drawn) | 109 to 111
34 | Cc1cc2[nH]c(C)nc(NCCN3CCOCC3)c-2n1 | 237 to 238
35 | Nc1cc(C(=O)O)nn1-c1c(Cl)cc(C(F)(F)F)cc1Cl | 213
36 | CCCCN(C(=O)c1ccccc1)C(=NC(=O)c1ccccc1)Nc1ccc(C(N)=O)cc1 | 90 to 92
37 | CCOC(=O)N1CCN(c2nc(N(C(C)=O)C3CC3)ccc2N)CC1 | 149 to 150
38 | COc1ccc(C(OCC2OC(n3cc(C)c(=O)[nH]c3=O)CC2O)(c2ccccc2)c2ccc(OC)cc2)cc1 (stereo not drawn) | 124 to 126
39 | CCOC(=O)Cn1c(=S)c2ccccc2n(Cc2ccc(Cl)cc2Cl)c1=O | 138 to 139
40 | C[C@@H](n1ncn(-c2ccc(OC(F)(F)F)cc2)c1=O)[C@@]1(c2ccc(F)cc2F)CO1 | 103 to 106
41 | CCNc1ncnc2c1ncn2Cc1c(F)cccc1Cl | 175 to 176
42 | C=C(C)COc1cc2c(c(C)c1C)N(C=O)CC2 | 81 to 83
43 | Clc1cc2nnnn2c2cnccc12 | 176 to 177
44 | NNC(=O)c1[nH]cc(OCc2ccccc2)c(=O)c1Br | 184
45 | C#Cc1cc(Nc2ncnc3cnc(NC(=O)/C=C/CN(C)C)cc23)ccc1F | 152 to 155
46 | Cn1ccc2cc(N3Cc4ccc(OC(F)F)cc4C3=O)ccc21 | 180 to 182
47 | O=C1N=C(Cc2c[nH]c3ccccc23)C(CCc2cc(C(F)(F)F)cc(C(F)(F)F)c2)O1 (stereo not drawn) | 178 to 180
48 | O=C1OC(=O)C(c2ccc(C(=O)O)cc2)=C1c1ccccc1 | 247 to 249
49 | C#CCSC(=S)N(C)C | 57 to 59

The next lines start with the values.

Row | melting point [°C] | Compound
50 | 164 | Cc1cc2c(cc1N(C)C=O)N1CCN=C1S2
51 | 121 to 123 | O=C(Cl)c1sc2cc(Oc3ccccc3)ccc2c1Cl
52 | 180 to 182 | CC(C)(C)OC(=O)Nc1ccc2[nH]c(C(=O)OCc3ccccc3)cc2c1
53 | 80 to 82 | Cc1cccc2c1nc(COc1ccc(Cl)cc1)n2CCC(C)CN(C)C (racemic)
54 | 132 to 135 | CCCCc1nc2ccccn2c(=O)c1-c1ccc2[nH]ccc2c1
55 | 183 to 184 | Cc1c(C(=O)O)cnn1-c1ccc(F)cc1F
56 | 131 to 132 | Cc1nc(CCCCn2cnc3c2c(=O)n(C)c(=O)n3C)no1
57 | 176 to 178 | CCCOc1ccc(CNC=C2C(=O)N(O)C(=O)c3ccccc32)cc1O
58 | 65 to 67 | OC(CNCCCCCCOCCCCc1ccccc1)c1cc(OCc2ccccc2)cc(OCc2ccccc2)c1 (stereo not drawn)
59 | 163 to 166 | CCOC(=O)c1cn(Cc2ccc(-c3ccccc3-c3nnn[nH]3)cc2)c2sc(CC)c(NC(C)=O)c2c1=O
60 | 87 to 89 | CCCCCCCCCCOc1ccc(-c2ccc(CCC(C)O)cc2)cc1 (single isomer, unassigned; (+))
61 | 126 to 127 | CCc1cc(C(C)=O)c(O)cc1OCCCCCCc1nnn[nH]1
62 | 220 | CCC(C)CNc1nc2ccc(Sc3nnc4n3N=C(c3ccc(F)cc3)CC4)cc2s1 (stereo not drawn)
63 | 73 to 75 | Nc1ccc2c(c1-c1ccccc1)CCC2
64 | 35 to 36 | CCCCCOc1ccc(CO)cc1OC(C)=O
65 | 283 to 285 | Cc1ccc2c(c1)C(=O)c1nc3ccccc3c(=O)n1-2
66 | 245 to 247 | CSC1=NC2=NC3=C(CN(Cc4ccccc4)CC3=O)CN2N1
67 | 258 to 259 | COc1ccc(/C=C/C(=O)Nc2ccc(C(=O)O)cc2)cc1OC
68 | 106 to 108 | COC(=O)c1ccc(C#Cc2ccccc2F)o1
69 | 200 to 202 | O=C(O)C1Cc2c([nH]c3ccccc23)CN1C(=S)SCC=Cc1ccccc1 (stereo not drawn)
70 | 93 to 94 | C=C(C)C(=O)NCCCNC(=O)CC(C)=O
71 | 101 to 102 | CC(C)c1nc(CCCl)n(C)c1Sc1cc(Cl)cc(Cl)c1
72 | 99 to 100 | Cc1oc(-c2ccccc2)nc1CCc1ccc(CCCC2SC(=O)NC2=O)cc1 (stereo not drawn)
73 | 168 to 170 | O=C(O)c1cccc(NC(=O)C(CS)Cc2ccc(F)cc2F)c1 (stereo not drawn)
74 | 210 | Cn1cnnc1C(N)(c1ccc(Cl)cc1)c1ccc2c(c1)c(-c1cccc(Cl)c1)cc(=O)n2C (stereo not drawn)

Row | melting point [°C] | Compound
75 | 26 to 28 | CSC1CC(=O)N1Cc1ccccc1 (stereo not drawn)
76 | 265 to 266 | NC(=O)c1cc(C(=O)O)c(O)c2ncc(Cc3ccc(F)cc3)cc12
77 | 179 to 181 | N#CCC(C(=O)N1C(=O)OCC1c1ccccc1)c1ccccc1F (stereo not drawn)
78 | 135 | COc1cccc(NC(=O)C(N)=S)c1
79 | 144 | CC(C)(C)c1cc(C(=O)c2cccnc2)cc(C(C)(C)C)c1O
80 | 135 to 136 | Cc1cc(Cn2c(-c3ccccc3)nc(Cl)c2C=O)ccc1OCc1ccccc1
81 | 120 to 122 | CCc1c(Cc2ccccc2)n(COCCO)c(=O)[nH]c1=O
82 | 284 to 285 | Cc1nc2c3c(c(C(=O)N4CCOCC4)cc2n1C)CCC1(Cc2ccccc2C1)N3
83 | 144 to 145 | COc1cc2cc(-c3ccccc3)sc2c(Cl)c1Cl
84 | 135 to 137 | Cc1ccc(S(=O)(=O)N2CCN(C(=O)c3cc4cc(O)ccc4cc3O)CC2)cc1
85 | 218 | COc1cc2c(cc1OC)[C@@H]1CCCC[C@@H]1N=C2c1ccc(NC(C)=O)cc1 (racemic)
86 | 113 | Cn1c(=S)c(-c2cccs2)nc2ccccc21
87 | 99.8 to 100 | CCCN(c1ccccc1)c1nc(C)nc(Cl)c1[N+](=O)[O-]
88 | 85 | CCOP(=O)(CCN1CCC(N(NCCN2CCCC2)S(=O)(=O)c2ccc(Nc3nccc(Nc4ccc(F)cc4)n3)cc2)CC1)OCC
89 | 86 to 87 | CC(C)(C)C(=O)Nc1cc(Cl)ccn1
90 | 184 to 185 | COc1ccc(C(=O)Nc2cccnc2)cc1Nc1cccc(C(F)(F)F)c1
91 | 167 to 169 | CCNc1nc(OC)c(C(=O)NCC2CCCN2CC)nc1Cl (stereo not drawn)
92 | 122 to 124 | Cn1cc(SC(F)(F)F)c(=O)c(-c2cccc(C(F)(F)F)c2)c1
93 | 251 to 252 | CC(C)(C)c1ccc(-n2cc(C(=O)O)c(=O)c3ccc(-c4ccncc4)cc32)cc1
94 | 168 to 170 | COc1nc(C)nc(NC(=O)NS(=O)(=O)c2cccc3c2C(Cl)=CC3)n1
95 | 212 to 213 | CNC(=O)Nc1n[nH]c(-c2ccncc2)c1-c1ccc(F)cc1
96 | 227 to 229 | CCC(C)C(NC(=O)OC)C(=O)NN(Cc1ccc(-c2nccs2)cc1)CC(O)C(Cc1ccccc1)NC(=O)C(NC(=O)OC)C(C)C (stereo not drawn)
97 | 55 to 57 | COC(=O)c1cnccc1NC(=O)C(C)CSC(C)=O (stereo not drawn)
98 | 155 to 160 | Cn1ccnc1SCc1nc(-c2ccc3c(c2)OCO3)c2cc3c(cc2n1)OCO3
